Data published in patent publication US8653087B2, “Pyrido [5, 4-D] pyrimidines as cell proliferation inhibitors” (Boehringer Ingelheim International GmbH, priority 2008, dated 2014).
pIC50: −log10 of the molar value.

Biological target: B-Raf (V600E)-kinase (Homo sapiens (Human), UniProt P15056, V600E)
Assay: Kinase test B-RAF (V600E)
Format: biochemical
Details: B-RAF (V600E) kinase test, 250 μM ATP
In short: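 Read-out is DELFIA europium TRF of phospho-MEK (Ser217/221) on biotinylated MEK1 bound to streptavidin plates, IC50 from dose-response. Reaction ran 60 min at RT with 250 μM ATP, after a 24 h RT preincubation of compound with B-Raf (V600E) kinase, 5% DMSO final.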

Chain of B-Raf (V600E)-kinase (P15056 whole entry V600E): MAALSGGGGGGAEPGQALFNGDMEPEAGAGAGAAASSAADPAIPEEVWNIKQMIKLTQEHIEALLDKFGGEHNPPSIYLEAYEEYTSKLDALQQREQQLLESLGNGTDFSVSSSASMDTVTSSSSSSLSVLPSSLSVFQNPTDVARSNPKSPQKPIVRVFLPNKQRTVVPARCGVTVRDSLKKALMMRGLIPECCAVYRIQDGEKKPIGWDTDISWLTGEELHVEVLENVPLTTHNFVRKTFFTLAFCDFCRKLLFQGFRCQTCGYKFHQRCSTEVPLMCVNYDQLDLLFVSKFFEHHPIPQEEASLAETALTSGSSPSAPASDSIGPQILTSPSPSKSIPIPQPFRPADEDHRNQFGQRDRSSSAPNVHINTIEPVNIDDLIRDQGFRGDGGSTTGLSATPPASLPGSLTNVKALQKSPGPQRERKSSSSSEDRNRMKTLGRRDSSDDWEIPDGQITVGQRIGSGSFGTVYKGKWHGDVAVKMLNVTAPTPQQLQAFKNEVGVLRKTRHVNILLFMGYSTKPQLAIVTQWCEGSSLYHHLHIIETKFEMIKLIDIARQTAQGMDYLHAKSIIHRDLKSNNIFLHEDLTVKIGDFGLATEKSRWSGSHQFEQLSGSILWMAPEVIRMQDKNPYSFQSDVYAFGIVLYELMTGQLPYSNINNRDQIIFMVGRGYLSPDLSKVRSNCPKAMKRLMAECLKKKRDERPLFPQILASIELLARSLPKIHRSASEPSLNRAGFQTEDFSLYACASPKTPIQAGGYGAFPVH

Row | Structure (SMILES) | pIC50
1 | Cc1ccc(C(=O)NCC2CCOC2)cc1Nc1ncnc2cnc(N3CC[C@@H](F)C3)nc12 (some centres unmarked) [III-205] | < 5.70
2 | Cc1ccc(C(=O)Nc2cc(N(C)CCN(C)C)cc(C(F)(F)F)c2)cc1Nc1ncnc2cnc(NCc3ccncc3)nc12 [III-173] | 9.00
3 | Cc1ccc(C(=O)Nc2cccc(C(F)(F)F)c2)cc1Nc1ncnc2c(N)nc(N3CCN(C)CC3)nc12 [I-55] | > 9.00
4 | CN1CCCN(c2ncc3ncnc(Nc4cc(C(=O)Nc5cc(C(C)(C)C)on5)ccc4F)c3n2)CC1 [III-86] | > 9.00
5 | Cc1ccc(C(=O)NCC2CCOC2)cc1Nc1ncnc2cnc(N3CCCN(C)CC3)nc12 (centres unmarked) [III-179] | < 5.15
6 | COc1ccc(NC(=O)c2ccc(Cl)c(Nc3ncnc4cnc(N(C)CCN(C)C)nc34)c2)cc1C(F)(F)F [III-5] | 8.70
7 | COc1ccc(NC(=O)c2ccc(F)c(Nc3ncnc4cnc(NCCN5CCOCC5)nc34)c2)cc1C(F)(F)F [III-40] | 8.70
8 | CCN1CCN(c2cc(NC(=O)c3ccc(C)c(Nc4ncnc5c(N)nc(N6CC[C@H](F)C6)nc45)c3)cc(C(F)(F)F)c2)CC1 [I-88] | 8.00
9 | CN1CCN(c2nc(N)c3ncnc(Nc4ccc(F)c(C(=O)Nc5cc(C(C)(C)C)n[nH]5)c4)c3n2)CC1 [I-82] | 6.17
10 | Cc1ccc(C(=O)Nc2cc(CN3CCCC3)cc(C(F)(F)F)c2)cc1Nc1ncnc2cnc(N3CCCC3)nc12 [III-109] | 8.70
11 | COc1ccc(C(C)(C)C)cc1NC(=O)c1ccc(C)c(Nc2ncnc3cnc(N4CCCN(C)CC4)nc23)c1 [III-225] | 8.70
12 | COCCN(C)c1ncc2ncnc(Nc3cc(C(=O)Nc4ccc(OC)c(C(F)(F)F)c4)ccc3C(F)(F)F)c2n1 [III-42] | 7.19
13 | COc1ccc(NC(=O)c2ccc(C)c(Nc3ncnc4c(N)nc(N5CCN(CC6CCN(C)CC6)CC5)nc34)c2)cc1C(F)(F)F [I-16] | 9.00
14 | Cc1ccc(C(=O)NC2CC2)cc1Nc1ncnc2cnc(N3CC[C@@H](F)C3)nc12 [III-210] | < 5.70
15 | COc1cc(NC(=O)c2ccc(C)c(Nc3ncnc4c(N)nc(N5CCN(C)CC5)nc34)c2)cc(C(F)(F)F)c1 [I-54] | 8.30
16 | Cc1ccc(C(=O)Nc2cccc(N(C)C)c2)cc1Nc1ncnc2cnc(N3CCCCC3)nc12 [III-247] | 9.00
17 | COc1ccc(NC(=O)c2ccc(C(F)(F)F)c(Nc3ncnc4cnc(N(C)CCN5CCCC5)nc34)c2)cc1C(F)(F)F [III-46] | 6.35
18 | Cc1ccc(C(=O)Nc2ccccc2)cc1Nc1ncnc2cnc(N3CCCC3)nc12 [III-259] | 6.30
19 | COc1ccc(NC(=O)c2ccc(C(F)(F)F)c(Nc3ncnc4cnc(N5CCCN(C)CC5)nc34)c2)cc1C(F)(F)F [III-45] | 6.55

Row | Structure (SMILES) | pIC50
20 | Cc1ccc(C(=O)Nc2ccc(F)c(C(F)(F)F)c2)cc1Nc1ncnc2cnc(N3CCCN(C)CC3)nc12 [III-216] | 8.52
21 | COc1ccc(C(=O)Nc2cc(C(C)(C)C)on2)cc1Nc1ncnc2cnc(N3CCCC3)nc12 [III-82] | 7.70
22 | Cc1ccc(C(=O)Nc2cc(OCCN(C)C)cc(C(F)(F)F)c2)cc1Nc1ncnc2cnc(N(C)C)nc12 [III-155] | 8.70
23 | CN(CCN1CCCC1)c1ncc2ncnc(Nc3cc(C(=O)Nc4cc(C(C)(C)C)on4)ccc3Cl)c2n1 [III-71] | 8.52
24 | Cc1ccc(C(=O)Nc2cc(Br)cc(C(F)(F)F)c2)cc1Nc1ncnc2c(N)nc(N3CCN(C)CC3)nc12 [I-2] | 8.05
25 | Cc1ccc(C(=O)Nc2ccccc2)cc1Nc1ncnc2cnc(N3CCN(C)CC3)nc12 [III-190] | 5.81
26 | Cc1ccc(C(=O)Nc2cc(CN3CCCC3)cc(C(F)(F)F)c2)cc1Nc1ncnc2cnc(NCCc3ccccc3)nc12 [III-118] | 8.70
27 | Cc1ccc(C(=O)Nc2cc(OCCN(C)C)cc(C(F)(F)F)c2)cc1Nc1ncnc2cnc(NC3CC3)nc12 [III-152] | > 9.00
28 | Cc1ccc(NC(=O)c2cccc(C(F)(F)F)c2)cc1Nc1ncnc2c(N)nc(NCc3ccccn3)nc12 [II-6] | 7.02
29 | COc1c(NC(=O)c2ccc(C)c(Nc3ncnc4cnc(N5CCCN(C)CC5)nc34)c2)cc(C(C)(C)C)cc1NS(C)(=O)=O [III-181] | 7.77
30 | CC(C)(C)c1cc(NC(=O)c2ccc(C(F)(F)F)c(Nc3ncnc4cnc(NCCCN5CCOCC5)nc34)c2)no1 [III-62] | 6.26
31 | Cc1ccc(C(=O)NCc2cccc(C(F)(F)F)c2)cc1Nc1ncnc2cnc(N3CCN(C)CC3)nc12 [III-188] | 6.98
32 | Cc1ccc(C(=O)Nc2cc(C(F)(F)F)ccn2)cc1Nc1ncnc2cnc(N3CCCC3)nc12 [III-275] | 8.70
33 | Cc1ccc(C(=O)Nc2cc(C(C)(C)C)n[nH]2)cc1Nc1ncnc2c(N)nc(N3CCN(CC(C)C)CC3)nc12 [I-37] | 8.40
34 | Cc1ccc(C(=O)Nc2cc(OCCN(C)C)cc(C(F)(F)F)c2)cc1Nc1ncnc2cnc(NCC3CCOC3)nc12 (centres unmarked) [III-146] | > 9.00
35 | COc1ccc(NC(=O)c2ccc(F)c(Nc3ncnc4cnc(N5CCN(C)CC5)nc34)c2)cc1C(F)(F)F [III-34] | 8.70
36 | Cc1ccc(C(=O)Nc2cccc(C(F)(F)F)c2)cc1Nc1ncnc2c(N)nc(N3CCNCC3)nc12 [I-66] | > 9.00
37 | Cc1ccc(C(=O)Nc2cccc(C(C)(C)C#N)c2)cc1Nc1ncnc2cnc(N3CCCCC3)nc12 [III-213] | 8.52

Now from value to compound:

Row | pIC50 | Structure (SMILES)
38 | 8.52 | COc1ccc(C(=O)Nc2ccc(C)c(Nc3ncnc4cnc(N(C)C)nc34)c2)cc1C(F)(F)F [IV-15]
39 | 9.00 | COc1ccc(C(F)(F)F)cc1NC(=O)c1ccc(C)c(Nc2ncnc3cnc(NC4CCOC4)nc23)c1 (centres unmarked) [III-347]
40 | 8.40 | CCN1CCN(c2cc(NC(=O)c3ccc(C)c(Nc4ncnc5cnc(N6CC[C@H](F)C6)nc45)c3)cc(C(F)(F)F)c2)CC1 [III-439]
41 | 8.70 | Cc1ccc(C(=O)Nc2cc(C(C)(C)C)n[nH]2)cc1Nc1ncnc2cnc(N3CCN(CC4CCN(C)CC4)CC3)nc12 [III-418]
42 | 8.52 | CC(C)(C)c1cc(NC(=O)c2ccc(F)c(Nc3ncnc4cnc(NC5CCOC5)nc34)c2)no1 (centres unmarked) [III-381]
43 | 8.15 | COCCN1CCN(c2ncc3ncnc(Nc4cc(C(=O)Nc5cc(C(C)(C)C)n[nH]5)ccc4C)c3n2)CC1 [III-425]
44 | 7.74 | COc1ccc(NC(=O)c2ccc(C)c(Nc3ncnc4cnc(N5CCN6CCCCC6C5)nc34)c2)cc1C(F)(F)F (centres unmarked) [III-555]
45 | > 9.00 | Cc1ccc(C(=O)Nc2cccc(C(C)(C)C)c2)cc1Nc1ncnc2cnc(NCC(C)C)nc12 [III-500]
46 | > 9.00 | Cc1ccc(C(=O)Nc2cccc(C(C)(C)C)c2)cc1Nc1ncnc2cnc(N3CCNCC3)nc12 [III-341]
47 | 8.52 | Cc1ccc(C(=O)Nc2cc(C(C)(C)C)n[nH]2)cc1Nc1ncnc2cnc(N3CCC(CN4CCCC4)CC3)nc12 [III-600]
48 | 8.52 | Cc1ccc(C(=O)Nc2ccnc(C(C)(C)C)c2)cc1Nc1ncnc2cnc(N3CCC(CN4CCCC4)CC3)nc12 [III-604]
49 | > 9.00 | CN1CCN(c2cc(NC(=O)c3ccc(F)c(Nc4ncnc5cnc(NC6CCOC6)nc45)c3)cc(C(F)(F)F)c2F)CC1 (centres unmarked) [III-389]
50 | 8.22 | COc1ccc(NC(=O)c2ccc(C)c(Nc3ncnc4cnc(N5CCN(CC6CCOC6)CC5)nc34)c2)cc1C(F)(F)F (centres unmarked) [III-432]
51 | 7.60 | COCCN1CCN(c2ncc3ncnc(Nc4cc(C(=O)Nc5cc(N6CCN(C)CC6)c(F)c(C(F)(F)F)c5)ccc4C)c3n2)CC1 [III-501]
52 | 8.05 | COc1ccc(NC(=O)c2ccc(C)c(Nc3ncnc4cnc(N(C)CC5CCCCO5)nc34)c2)cc1C(F)(F)F (centres unmarked) [III-409]
53 | 8.40 | Cc1ccc(C(=O)Nc2cccc(OC(F)(F)F)c2)cc1Nc1ncnc2cnc(N3CCCCC3)nc12 [III-332]
54 | 6.28 | CCS(=O)(=O)Nc1ccc(C)c(Nc2ncnc3cnc(N4CCN(C)CC4)nc23)c1 [IV-64]

Row | pIC50 | Structure (SMILES)
55 | 8.22 | Cc1ccc(C(=O)Nc2cc(C(C)(C)C)n[nH]2)cc1Nc1ncnc2cnc(N3CCCN(C)CC3)nc12 [III-446]
56 | 5.85 | Cc1ccc(C(=O)Nc2nnc(C(F)(F)F)s2)cc1Nc1ncnc2cnc(N3CCCN(C)CC3)nc12 [III-282]
57 | 8.52 | COc1ccc(NC(=O)c2ccc(C)c(Nc3ncnc4cnc(N5C[C@H]6C[C@@H]5CN6C)nc34)c2)cc1C(F)(F)F [III-431]
58 | > 9.00 | Cc1ccc(C(=O)Nc2cc(C(F)(F)F)ccn2)cc1Nc1ncnc2cnc(NC3CCOC3)nc12 (centres unmarked) [III-355]
59 | 8.70 | CCN1CCN(c2cc(NC(=O)c3ccc(C)c(Nc4ncnc5cnc(N6CCOCC6)nc45)c3)cc(C(F)(F)F)c2)CC1 [III-441]
60 | 8.15 | Cn1nc(C(C)(C)C)cc1NC(=O)c1cc(Cl)cc(Nc2ncnc3cnc(N4CCOCC4)nc23)c1 [III-376]
61 | 8.70 | COc1c(CN2CCCC2)cc(C(F)(F)F)cc1NC(=O)c1ccc(C)c(Nc2ncnc3cnc(N4CCOCC4)nc23)c1 [III-539]
62 | 9.00 | Cc1ccc(C(=O)Nc2cccc(C(C)(C)C)c2)cc1Nc1ncnc2cnc(N3CCOCC3)nc12 [III-294]
63 | 9.00 | Cc1ccc(C(=O)Nc2cccc(C(C)(C)C)c2)cc1Nc1ncnc2cnc(N3CCN(CC4CCN(C)CC4)CC3)nc12 [III-416]
64 | 8.22 | Cc1ccc(C(=O)Nc2cc(N(C)CCN(C)C)cc(C(F)(F)F)c2)cc1Nc1ncnc2cnc(N3CC[C@H](F)C3)nc12 [III-438]
65 | 7.77 | COc1c(NC(=O)c2ccc(C)c(Nc3ncnc4cnc(N5CC[C@H](F)C5)nc34)c2)cc(C(C)(C)C)cc1NS(C)(=O)=O [III-295]
66 | 7.60 | CCN1CCN(c2cc(NC(=O)c3ccc(C)c(Nc4ncnc5cnc(N(C)CC6CCCCO6)nc45)c3)cc(C(F)(F)F)c2)CC1 (centres unmarked) [III-408]
67 | 9.00 | Cc1ccc(NC(=O)c2cccc(C(C)(C)C#N)c2)cc1Nc1ncnc2cnc(N(C)C3CCOC3)nc12 (centres unmarked) [IV-37]
68 | 8.10 | CN1CCN(c2ncc3ncnc(Nc4cc(Cl)cc(C(=O)Nc5cc(C(C)(C)C)nn5C)c4)c3n2)CC1 [III-378]
69 | 8.15 | Cc1ccc(C(=O)Nc2cccc(S(=O)(=O)N(C)C)c2)cc1Nc1ncnc2cnc(N3CCN(C)CC3)nc12 [III-303]
70 | 8.52 | Cc1ccc(NC(=O)c2cc(N3CCN(C)CC3)cc(C(C)(C)C#N)c2)cc1Nc1ncnc2cnc(N3CCOCC3)nc12 [IV-68]
71 | 5.70 | Cc1ccc(NS(=O)(=O)CC2CCCO2)cc1Nc1ncnc2cnc(N3CCN(C)CC3)nc12 (centres unmarked) [IV-62]
